Assay results from PMC3056768, “Conjugation to the Cell-Penetrating Peptide TAT Potentiates the Photodynamic Effect of Carboxytetramethylrhodamine” (PLoS ONE, 2011).
Entries after “also recorded” stand apart in the source; their conditions may differ.

Assays:
red blood cells (RBCs) = system: red blood cells (RBCs)
Protocol: Whole blood was purchased from Gulf Coast Regional Blood Center (Houston, TX). Erythrocytes were centrifuged for 5 min at 1500 g and the erythrocyte pellet was resuspended with PBS. This was repeated three times to remove plasma and buffy coat. The erythrocytes (50% volume in PBS) were diluted in PBS to a final concentration of 0.25%. Indicated concentration of peptide was added to the medium and the samples were added to the wells of an 8-well chamber glass slide (Nunc). Cells were typically allowed to settle to the bottom of the dish for 5 minutes prior to imaging so as to obtain a layer of cells in the focal plane.
Cells were placed on an inverted epifluorescence microscope (Model IX81, Olympus, Center Valley, PA) equipped with a heating stage maintained at 37°C. The microscope is configured with a spinning disk unit to perform both confocal and wide-field fluorescence microscopy. Images were collected using a Rolera-MGI Plus back-illuminated EMCCD camera (Qimaging, Surrey, BC, Canada). Images were acquired using bright field imaging and two standard fluorescence filter sets: Texas Red (Ex = 560±20 nm/Em = 630±35 nm), and CFP (Ex = 436±10 nm/Em = 480±20 nm). The excitation light was from a 100 W halogen lamp (Olympus USH 1030C) passed through the filter cubes and 40 or 100× objective lenses. Neutral density filters (ND 1, 2, 3, or 4 on the instrument, corresponding to 100, 25, 12.5, or 5% transmittance) and different exposure times were used to modulate the amount of light samples were exposed to. The bright field and fluorescence intensities of cells and ghosts were measured using the SlideBook 4.2 software (Olympus, Center Valley, PA). To determine the percentage of cells stained by SYTOX® Blue, cells were imaged with a 20× objective by phase contrast. Ten to twenty images were acquired for each experiment. The total number of cells in a given image was determined from the phase contrast image while the number of dead cells was determined by identifying cells containing a blue fluorescent nucleus stained by SYTOX® Blue. Cell viability was determined by establishing a ratio of dead cells/total number of cells for each sample (at least 1000 cells were counted in each experiments and each experiments were repeated 3 times).
TMR and TMR containing peptides were used at 2 µM. All experiments were performed by irradiating the samples at 560 nm for 400 msec (∼8 J/cm^2). The data in the histogram represents the average of 4 experiments and the error bars correspond to the standard deviation.

COLO 316 cells = experiment: Photocytotoxicity of endocytosed peptide; format: cell-based, human; details: COLO 316, 3 µM for 1 h, washed, 560 nm
Protocol: HeLa (human cervical adenocarcinoma), COS-7 (SV40 transformed African green monkey kidney fibroblast-like cell line) were obtained from ATCC. COLO 316 (human ovarian carcinoma) were obtained from Robert Burghardt (Department of Veterinary Integrative Biosciences, Texas A&M University). Cells were cultured in DMEM supplemented with 10% fetal bovine serum (FBS) and maintained at 37°C in a humidified environment with 5% CO2. Cells were plated in 8-well dishes so that the cells were 70% confluent after 24 h, washed 3 times with L-15 media, incubated with 3 to 10 µM peptides at 37°C for 1 h, washed 3 times with L-15, and imaged. Alternatively, cells were incubated in L-15 at 4°C to inhibit the endocytic uptake of peptides. In this case, cells were imaged with the peptide still present in solution and the low temperature was maintained for the entire duration of imaging. For photosensitization, cells were exposed to light (λex = 560±20 nm) for the indicated time points. Plasma membrane disruption was detected by addition of the cell-impermeable DNA stain SYTOX Blue (5 µM) during or after photosensitization.
Figure 2 The photolytic and photocytotoxic effects of TMR-TAT occur rapidly and in all irradiated cells. […] The cells were washed with fresh media and endocytosis of TMR-TAT was confirmed by fluorescence microscopy. […]

CN(C)c1ccc2c(c1)Oc1cc(N(C)C)ccc1C21OC(=O)c2cc(C(=O)NCC(=O)N[C@@H](CCCNC(=N)N)C(=O)N[C@@H](CCCCN)C(=O)N[C@@H](CCCCN)C(=O)N[C@@H](CCCNC(=N)N)C(=O)N[C@@H](CCCNC(=N)N)C(=O)N[C@@H](CCC(N)=O)C(=O)N[C@@H](CCCNC(=N)N)C(=O)N[C@@H](CCCNC(=N)N)C(=O)N[C@@H](CCCNC(=N)N)C(=O)NCC(N)=O)ccc21 [TMR-TAT]
lysis of RBCs when light exposure is increased (red blood cells (RBCs); 3 µM, 560 nm): more than 90% | lysis of RBCs in the absence of irradiation (red blood cells (RBCs); RBCs 0.25% in PBS, 1 to 5 µM, no 560 nm light): No lysis | photohemolysis (lytic effect on RBCs upon light exposure) (red blood cells (RBCs); RBCs 0.25% in PBS, irradiation at 560 nm): started lysing immediately upon excitation with light | photohemolysis after removal of oxygen (red blood cells (RBCs); incubation media degassed with nitrogen): greatly reduced | photo-induced activities (morphological changes, SYTOX Blue staining) (COLO 316 cells): only observable in the irradiated area; also recorded: could be reproduced
